# Assay results published in ChEMBL document CHEMBL1806354 (J Med Chem, 2011).
# How the values were obtained:
# Type in all cases: cell-based
# [1] = target: T1, D(1A) dopamine receptor (Homo sapiens, UniProt P21728); assay: Displacement of [3H]SCH23390 from dopamine D1 receptor expressed in HEK293 cells at 10 uM after 50 mins by beta liquid scintillation counter
# [2] = target: T2, 5-hydroxytryptamine receptor 1A (Homo sapiens, UniProt P08908); assay: Displacement of [3H]-8-OH-DPAT from 5-HT1A receptor expressed in CHO cells after 50 mins by beta liquid scintillation counter
# T2 sequence (P08908 whole entry): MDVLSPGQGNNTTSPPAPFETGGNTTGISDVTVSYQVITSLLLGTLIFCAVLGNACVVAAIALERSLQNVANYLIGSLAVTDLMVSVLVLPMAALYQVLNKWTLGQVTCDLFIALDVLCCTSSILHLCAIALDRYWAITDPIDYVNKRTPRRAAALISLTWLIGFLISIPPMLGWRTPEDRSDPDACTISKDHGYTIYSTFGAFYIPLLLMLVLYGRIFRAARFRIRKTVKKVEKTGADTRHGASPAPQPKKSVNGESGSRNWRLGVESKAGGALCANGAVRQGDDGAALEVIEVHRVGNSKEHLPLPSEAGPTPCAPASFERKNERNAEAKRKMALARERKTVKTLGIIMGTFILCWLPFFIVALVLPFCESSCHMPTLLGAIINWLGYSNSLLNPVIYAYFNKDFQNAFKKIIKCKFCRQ
# [3] = target: T3, D(2) dopamine receptor (Homo sapiens, UniProt P14416); assay: Displacement of [3H]spiperone from dopamine D2 receptor expressed in HEK293 cells after 50 mins by beta liquid scintillation counter
# [4] = target: T4, 5-hydroxytryptamine receptor 2A (Homo sapiens, UniProt P28223); assay: Displacement of [3H]ketanserin from 5-HT2A receptor expressed in CHO cells at 10 uM after 50 mins by beta liquid scintillation counter
# [5] = target: T4, 5-hydroxytryptamine receptor 2A; assay: Displacement of [3H]ketanserin from 5-HT2A receptor expressed in CHO cells after 50 mins by beta liquid scintillation counter
# [6] = target: T1, D(1A) dopamine receptor; assay: Displacement of [3H]SCH23390 from dopamine D1 receptor expressed in HEK293 cells after 50 mins by beta liquid scintillation counter
# [7] = target: T3, D(2) dopamine receptor; assay: Displacement of [3H]spiperone from dopamine D2 receptor expressed in HEK293 cells at 10 uM after 50 mins by beta liquid scintillation counter
# T4 sequence (P28223 whole entry): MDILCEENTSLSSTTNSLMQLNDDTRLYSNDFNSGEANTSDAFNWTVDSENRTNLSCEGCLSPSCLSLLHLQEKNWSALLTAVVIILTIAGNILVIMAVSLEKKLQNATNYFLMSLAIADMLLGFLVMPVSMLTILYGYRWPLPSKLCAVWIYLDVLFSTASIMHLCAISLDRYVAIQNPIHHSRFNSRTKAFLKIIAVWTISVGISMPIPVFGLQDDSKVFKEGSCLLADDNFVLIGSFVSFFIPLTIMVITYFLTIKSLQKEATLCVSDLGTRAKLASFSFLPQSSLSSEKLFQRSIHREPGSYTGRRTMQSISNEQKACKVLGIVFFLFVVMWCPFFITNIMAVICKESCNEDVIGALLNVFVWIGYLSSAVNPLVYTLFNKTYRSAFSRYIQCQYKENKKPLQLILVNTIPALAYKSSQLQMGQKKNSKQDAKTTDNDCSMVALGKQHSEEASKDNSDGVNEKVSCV
# T3 sequence (P14416 whole entry): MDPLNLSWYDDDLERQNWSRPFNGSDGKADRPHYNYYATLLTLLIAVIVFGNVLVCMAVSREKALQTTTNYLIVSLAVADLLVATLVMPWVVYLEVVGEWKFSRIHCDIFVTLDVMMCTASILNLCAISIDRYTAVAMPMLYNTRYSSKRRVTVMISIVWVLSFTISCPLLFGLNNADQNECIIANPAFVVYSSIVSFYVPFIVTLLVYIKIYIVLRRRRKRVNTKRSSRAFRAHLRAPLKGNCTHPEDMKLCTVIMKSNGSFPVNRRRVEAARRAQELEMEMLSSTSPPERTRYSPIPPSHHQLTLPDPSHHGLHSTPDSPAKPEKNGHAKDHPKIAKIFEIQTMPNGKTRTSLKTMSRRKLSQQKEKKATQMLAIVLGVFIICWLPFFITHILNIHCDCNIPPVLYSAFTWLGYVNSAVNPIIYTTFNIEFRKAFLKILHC
# T1 sequence (P21728 whole entry): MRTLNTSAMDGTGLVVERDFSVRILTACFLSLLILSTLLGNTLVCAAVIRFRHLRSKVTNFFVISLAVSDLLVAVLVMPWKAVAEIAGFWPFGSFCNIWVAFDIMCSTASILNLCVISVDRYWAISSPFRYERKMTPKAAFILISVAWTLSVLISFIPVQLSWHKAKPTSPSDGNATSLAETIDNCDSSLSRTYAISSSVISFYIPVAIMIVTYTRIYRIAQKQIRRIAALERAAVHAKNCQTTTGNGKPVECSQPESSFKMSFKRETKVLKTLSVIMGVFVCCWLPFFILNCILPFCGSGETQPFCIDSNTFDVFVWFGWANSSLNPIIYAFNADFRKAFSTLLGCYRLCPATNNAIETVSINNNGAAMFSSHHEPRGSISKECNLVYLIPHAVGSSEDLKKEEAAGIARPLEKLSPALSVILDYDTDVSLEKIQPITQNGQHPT
Structure (SMILES),inhibition [1] [%],Ki [2] [µM],Ki [3] [µM],inhibition [4] [%],Ki [5] [µM],Ki [6] [µM],inhibition [7] [%]
CCCN1CCc2cccc3c2[C@H]1Cc1cccc(OC(=O)NC(C)(C)C)c1-3,70.2,0.096,0.871,29.2,–,–,–
CCCN1CCc2cccc3c2C1Cc1cccc(OC(=O)NCc2ccccc2)c1-3 (racemic),–,0.259,4.3,–,2,4.2,–
CCCN1CCc2cccc3c2C1Cc1cccc(OC(=O)CSc2ccccc2)c1-3 (racemic),67.1,–,0.851,–,–,–,–
CCCN1CCc2cccc3c2[C@H]1Cc1cccc(OC(=O)CCCC[C@@H]2CCSS2)c1-3,69.6,0.045,0.296,–,–,–,–
CCCN1CCc2cccc3c2C1Cc1cccc(CNC(=S)CCCCC2CCSS2)c1-3 (racemic),11.4,–,–,–,–,–,3.1
CCCN1CCc2cccc3c2[C@H]1Cc1cccc(O)c1-3,63.2,–,–,63,–,–,–
CCCNC(=O)Oc1cccc2c1-c1cccc3c1[C@@H](C2)N(CCC)CC3,56.3,0.087,–,16,–,–,50.9
CCCN1CCc2cccc3c2[C@H]1Cc1cccc(N)c1-3,57.1,0.276,0.352,49.4,–,–,–
CCCN1CCc2cccc3c2C1Cc1cccc(OC(=O)Nc2cccc4ccccc24)c1-3 (stereo not given),48,0.124,2,21.7,–,–,–
CCCN1CCc2cccc3c2C1Cc1cccc(-c2noc(CCCCC4CCSS4)n2)c1-3 (racemic),57,–,–,–,–,–,19.5
CCCN1CCc2cccc3c2C1Cc1cccc(OC(=O)CCCCC2CCSS2)c1-3 (racemic),62.7,0.137,–,14.7,–,–,55.2
CCCN1CCc2cccc3c2C1Cc1cccc(OC(=O)NC(C)(C)C)c1-3 (racemic),44.2,0.217,2.8,20,–,–,–
CCCN1CCc2cccc3c2C1Cc1cccc(CNC(=O)NCC)c1-3 (racemic),35.4,–,–,–,–,–,15.7
CCCN1CCc2cccc3c2[C@H]1Cc1cccc(NC(=O)CCCCC2CCSS2)c1-3 (stereo not given in full),27.2,0.249,–,36.9,–,–,33.1
CCCN1CCc2cccc3c2[C@H]1Cc1cccc(OC(=O)NCC)c1-3,54.6,0.094,–,14.5,–,–,44.3
CCCN1CCc2cccc3c2C1Cc1cccc(CNC(=O)CCCCC2CCSS2)c1-3 (racemic),32.4,–,–,–,–,–,9.6
CCCCNC(=O)Oc1cccc2c1-c1cccc3c1[C@@H](C2)N(CCC)CC3,53.6,0.089,–,34.9,–,–,40.9
CCCN1CCc2cccc3c2[C@H]1Cc1cccc(OC(=O)NCc2ccccc2)c1-3,–,0.09,2.2,76.6,–,2.4,–
CCCN1CCc2cccc3c2[C@H]1Cc1cccc(OC(=O)CCCC[C@H]2CCSS2)c1-3,64.8,0.035,0.342,–,–,–,–
CCCN1CCc2cccc3c2C1Cc1cccc(OC(=O)NCC)c1-3 (racemic),46.1,0.218,–,19.8,–,–,56.7
CCCNC(=O)Oc1cccc2c1-c1cccc3c1C(C2)N(CCC)CC3 (racemic),26.2,0.258,–,30.1,–,–,52.7
CCCCNC(=O)Oc1cccc2c1-c1cccc3c1C(C2)N(CCC)CC3 (racemic),36.5,0.385,–,37.4,–,–,53.2
CCCN1CCc2cccc3c2C1Cc1cccc(O)c1-3 (racemic),55.9,0.066,–,14.1,–,–,–
CCCC(=O)Nc1cccc2c1-c1cccc3c1[C@@H](C2)N(CCC)CC3,16.1,0.38,–,16.6,–,–,13.5
CCCC(=O)Oc1cccc2c1-c1cccc3c1[C@@H](C2)N(CCC)CC3,63.2,0.0119,0.0555,68,–,–,–
